# Test results reported in patent US11998539B2, “Substituted aminoquinolones as DGKalpha inhibitors for immune activation” (Bayer Aktiengesellschaft, priority 2019, dated 2024).
# System: intracranially injected GBM tumors
# Test: not given
# Details: concurrent administration; Dominguez et al. 2013; cited from earlier work
row,Compound,growth of intracranially injected GBM tumors
1,Cc1nc2sccn2c(=O)c1CCN1CCC(=C(c2ccccc2)c2ccc(F)cc2)CC1 [Example R59022],decreased growth

# Biological target: T1, DGKα (Homo sapiens (Human), UniProt P23743)
# Test: Human DGKα kinase activity inhibition assay (ADP-Glo)
# Format: biochemical
# Details: recombinant full-length human DGKα, 55 μM ATP, 7 μM 1,2-dioleoyl-sn-glycerol, read-out: IC50 values of examples in in vitro human DGKa kinase activity inhibition assays
# Summary of the method: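 Activity was measured as ADP production, detected by luciferase luminescence after removal of unused ATP. The enzyme was baculovirus-expressed full-length human DGKα with a C-terminal FLAG tag. The substrate was 1,2-dioleoyl-sn-glycerol in detergent micelles, and compounds came from 100× DMSO solutions.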
# Target sequence in this assay (P23743 other isoform, or with tags, fused parts or gaps): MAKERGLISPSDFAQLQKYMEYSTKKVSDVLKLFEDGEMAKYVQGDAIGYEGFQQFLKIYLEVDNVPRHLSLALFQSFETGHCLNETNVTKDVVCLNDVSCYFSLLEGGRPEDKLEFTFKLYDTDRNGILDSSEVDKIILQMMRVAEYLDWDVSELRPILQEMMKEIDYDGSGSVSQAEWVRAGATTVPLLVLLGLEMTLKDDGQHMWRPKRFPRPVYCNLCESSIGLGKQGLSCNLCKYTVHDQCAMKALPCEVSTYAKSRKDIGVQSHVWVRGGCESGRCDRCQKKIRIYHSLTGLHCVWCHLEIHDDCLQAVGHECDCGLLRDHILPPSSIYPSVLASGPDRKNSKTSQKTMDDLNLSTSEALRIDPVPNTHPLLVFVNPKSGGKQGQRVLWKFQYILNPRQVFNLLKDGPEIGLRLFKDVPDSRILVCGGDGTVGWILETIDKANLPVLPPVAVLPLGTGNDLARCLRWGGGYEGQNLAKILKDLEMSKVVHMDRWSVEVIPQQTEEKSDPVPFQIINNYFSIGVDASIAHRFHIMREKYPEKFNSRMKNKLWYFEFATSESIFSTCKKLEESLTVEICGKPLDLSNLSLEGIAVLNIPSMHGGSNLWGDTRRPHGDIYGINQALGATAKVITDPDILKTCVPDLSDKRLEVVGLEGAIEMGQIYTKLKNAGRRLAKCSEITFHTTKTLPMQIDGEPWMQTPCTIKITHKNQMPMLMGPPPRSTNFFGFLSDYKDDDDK
row,Compound,IC50 [nM]
1,"Cn1c(=O)c(C#N)c(N2CCC(c3nc4ccccc4s3)CC2)c2ccc(Br)cc21 [Example 33, 4-[4-(1,3-benzothiazol-2-yl)piperidin-1-yl]-7-bromo-1-methyl-2-oxo-1,2-dihydroquinoline-3-carbonitrile]",6.2
2,"COc1ccc(C2CCN(c3c(C#N)c(=O)n(C)c4ccccc34)CC2)cc1 [Example 41, 4-[4-(4-methoxyphenyl)piperidin-1-yl]-1-methyl-2-oxo-1,2-dihydroquinoline-3-carbonitrile]",4.9
3,"CC(C)c1ccc2oc(C3(C)CCN(c4c(C#N)c(=O)n(C)c5ccccc45)CC3)nc2c1 [Example 21, 1-methyl-4-{4-methyl-4-[5-(propan-2-yl)-1,3-benzoxazol-2-yl]piperidin-1-yl}-2-oxo-1,2-dihydroquinoline-3-carbonitrile]",5.2
4,"Cc1ccc2c(N3CCC(c4nc5ccccc5o4)CC3)c(C#N)c(=O)n(C)c2c1 [Example 219, 4-[4-(1,3-benzoxazol-2-yl)piperidin-1-yl]-1,7-dimethyl-2-oxo-1,2-dihydroquinoline-3-carbonitrile]",1.6
5,"Cc1ccc2oc(C3CCN(c4c(C#N)c(=O)n(C)c5cc(C)ccc45)CC3)nc2c1 [Example 221, 1,7-dimethyl-4-[4-(5-methyl-1,3-benzoxazol-2-yl)piperidin-1-yl]-2-oxo-1,2-dihydroquinoline-3-carbonitrile]",1.8
6,"Cn1c(=O)c(C#N)c(N2CCC(c3ccc(C(N)=O)cc3)CC2)c2ccccc21 [Example 330, 4-[1-(3-cyano-1-methyl-2-oxo-1,2-dihydroquinolin-4-yl)piperidin-4-yl]benzamide]",217
7,"Cn1c(=O)c(C(N)=O)c(N2CCC(c3nc4ccccc4s3)CC2)c2ccc(N3CCCC3=O)cc21 [Example 116, 4-[4-(1,3-benzothiazol-2-yl)piperidin-1-yl]-1-methyl-2-oxo-7-(2-oxopyrrolidin-1-yl)-1,2-dihydroquinoline-3-carboxamide]",36
8,"Cn1c(=O)c(C#N)c(N2CCC(c3ccc4c(c3)CC(O)C4)CC2)c2ccccc21 (stereo not drawn) [Example 359, 4-[4-(2-hydroxy-2,3-dihydro-1H-inden-5-yl)piperidin-1-yl]-1-methyl-2-oxo-1,2-dihydroquinoline-3-carbonitrile]",3.3

# Biological target: T1, DGKα
# Test: not given
# Details: prior art; cited from earlier work
# Target sequence in this assay (P23743 whole entry, species assumed): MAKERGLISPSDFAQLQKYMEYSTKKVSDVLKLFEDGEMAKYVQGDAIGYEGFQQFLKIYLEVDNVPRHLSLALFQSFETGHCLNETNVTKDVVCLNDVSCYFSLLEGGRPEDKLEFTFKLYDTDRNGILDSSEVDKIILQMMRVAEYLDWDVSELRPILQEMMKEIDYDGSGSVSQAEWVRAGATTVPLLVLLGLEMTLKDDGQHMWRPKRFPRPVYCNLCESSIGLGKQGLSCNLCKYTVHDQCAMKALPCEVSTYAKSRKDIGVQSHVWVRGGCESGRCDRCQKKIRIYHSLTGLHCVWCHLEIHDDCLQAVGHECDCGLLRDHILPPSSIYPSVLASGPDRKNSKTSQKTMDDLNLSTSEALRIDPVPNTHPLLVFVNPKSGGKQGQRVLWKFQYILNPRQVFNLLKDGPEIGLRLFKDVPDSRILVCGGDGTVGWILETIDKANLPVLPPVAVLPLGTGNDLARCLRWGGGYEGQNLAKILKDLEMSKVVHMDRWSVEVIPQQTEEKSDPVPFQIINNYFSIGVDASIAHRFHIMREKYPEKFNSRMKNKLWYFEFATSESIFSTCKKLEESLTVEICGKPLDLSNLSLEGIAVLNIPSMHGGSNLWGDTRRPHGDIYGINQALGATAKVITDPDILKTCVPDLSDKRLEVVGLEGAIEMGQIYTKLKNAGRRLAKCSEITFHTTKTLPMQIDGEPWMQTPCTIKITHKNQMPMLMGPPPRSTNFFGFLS
row,Compound,inhibitory activity on DGKα
1,Cc1ccc2c(C(=O)CN3CCN(C(=O)c4ccco4)CC3)c(C)[nH]c2c1 [AMB639752],micromolar
2,O=C1/C(=C\C=C\c2ccco2)SC(=S)N1NS(=O)(=O)c1ccccc1 [CU-3],sub-micromolar
3,Cc1nc2sccn2c(=O)c1CCN1CCC(=C(c2ccc(F)cc2)c2ccc(F)cc2)CC1 [Ritanserin],comparable activity
